Assay results: patent publication US20240294508A1, “RIP1 MODULATORS INCLUDING AZETIDINE CYCLIC UREAS, PREPARATIONS, AND USES THEREOF” (SIRONAX LTD., priority 2021, published 2024)

system: HT-29 cells; experiment: HT29 cells 0FBS assay in vitro: TNF-α/SMAC mimetic/zVAD-FMK induced necroptosis, CellTiter-Glo cell viability (RIP1 inhibitory activity); format: cell-based; settings: Homo sapiens, FBS free medium, TNF-α (10 ng/ml) + SMAC mimetic (6 uM) + zVAD-FMK (10 μM), 20 hours, geometric mean EC50
From the text: Protocol for HT29 Cells 0FBS Assay In Vitro
• Cell line: HT-29 (ATCC® HTB-38™) • Culture medium: McCOY's 5A, Gibco, Cat No. 16600-082 • FBS, Gibco, Cat No. 10099-141C • Trypsin: Gibco, Cat No. 25200-056 • DMSO: Sigma, Cat No. 67-68-5, 1L • Assay plate: Corning #3903 • Compound dilution plate: Corning #3357 • Inducers: TNFα, GenScript, Cat No. Z01001-50, • SmacM, Cat. No., HY-15989, MedChemExpress (MCE) • Z_VAD FMK, TargetMol, T6013 • Cell Titer-Glo® Luminescent Cell Viability Assay Kit: Promega, Cat No. G7573 • EnVision: PerkinElmer, 2105-0010
2. Cell Seeding of HT-29 Cells
1) HT-29 cells were checked every day to make sure they are healthy and growing as expected. They were split sub-culturing when were approximately 80% confluent.
2) First pre-warm the culture medium of McCOY's 5A medium (Gibco, Cat No. 16600-082) with 10% FBS (Gibco, Cat No. 10099-141C) in 37° C. water bath for at least 30 min.
3) Growing cells to desired level of confluency 80% in a T75 flask, aspirate the medium, and wash with warm PBS two times.
4) Add 2-3 ml fresh warm trypsin (Gibco, Cat No. 25200-056) solution. Transfer the flask to a 37° C. incubator.
5) After 5 minutes, tap the side of the flask, and examine the flask under a microscope for lifting. If necessary, return the cells to the incubator for an additional 5-10 minutes, with occasional tapping, until lifting is complete.
6) Quickly neutralize the trypsin reaction by adding 6-9 ml cell culture medium, then transfer the cells to sterile 15 ml conical tubes. Pellet the cells by centrifugation at 300×g for 7 minutes, then decant the supernatant.
7) Resuspend the cells in fresh cell culture medium. Do cell counting with hemocytometer.
8) Seed 100 μl of 5,000 cells into each well of the sterile 96-well cell culture plate (Corning 3903) and culture overnight at 37° C. with 5% CO2.
3. Compounds Titration and Treatment of HT-29 Cells
1) All batches of compounds (CPDs0 (e.g., compound 1-169) were dissolved in DMSO (Dimethyl sulfoxide) as 20 mM stock solution.
2) Take 3 ul 20 mM stock solution of CPDs to […] DMSO and mix well, continue the titration ratio of 1:3 (20 ul CPDs+40 ul DMSO), e.g., to give solutions of CPDS at 6.6 mM, 2.2 mM, etc., till the 10 points end.
3) Take out assay plates with HT-29 cells from incubator, remove all culture medium then wash 1 time with 1×PBS, and change fresh McCOY's 5A medium of FBS free with a cocktail of TNF-α (10 ng/ml), the SMAC mimetic (6 uM) and zVAD-FMK (10 μM) to stimulate the HT-29 cells to increase pRIPK1 levels and necroptosis.
4) Add 0.5 μL of the diluted compound to the corresponding 96-well assay plates.
5) Incubate the assay plates for 20 hours at 37° C. with 5% CO2.
4. Performing Cell Viability Detection of HT-29 Cells after Treated with Compounds
1) The CellTiter-Glo® Luminescent Cell Viability Assay was employed to detect the ATP levels of viable HT-29 cells.
2) Equilibrate the CellTiter-Glo® buffer and the lyophilized substrate to room temperature prior to use.
3) Resuspend the CellTiter-Glo® substrate with CellTiter-Glo® buffer, mix by gently vortexing to obtain a homogeneous solution.
4) Pipette 20 μl the enzyme/substrate mixture by multi-channel pipette into the 96-well assay plates from step 5) under the Compounds titration and treatment stage.
5) Place the plates on an orbital shaker and mix the contents for 3 minutes to induce cell lysis.
6) Then allow the plates to incubate at room temperature for 10 minutes to stabilize luminescent signal.
7) Read and record luminescence signal with EnVision.
8) The geometric mean EC50 of the compounds were calculated from 10 points response dose with duplicate. In Table 2, activity is provided as follows: +++=0.1 nM≤EC50<100 nM; ++=100 nM≤EC5 1000 nM; […].

| SMILES | EC50 |
| --- | --- |
| COCCn1nc(C)c(-c2cc(OC3CN(C(=O)N4N=CC[C@H]4c4cc(F)cc(C#N)c4)C3)c(F)cn2)c1C [Compound 20, (S)-3-fluoro-5-(1-(3-((5-fluoro-2-(1-(2-methoxyethyl)-3,5-dimethyl-1H-pyrazol-4-yl)pyridin-4-yl)oxy)azetidine-1-carbonyl)-4,5-dihydro-1H-pyrazol-5-yl)benzonitrile] | 0.1 to 100 nM |
| Cc1nn(CC(N)=O)c(C)c1-c1cc(OC2CN(C(=O)N3N=CC[C@H]3c3cc(F)cc(C#N)c3)C2)c(F)cn1 [Compound 21, (S)-2-(4-(4-((1-(5-(3-cyano-5-fluorophenyl)-4,5-dihydro-1H-pyrazole-1-carbonyl)azetidin-3-yl)oxy)-5-fluoropyridin-2-yl)-3,5-dimethyl-1H-pyrazol-1-yl)acetamide] | 0.1 to 100 nM |
| Cc1ncn(C)c1-c1cc(OC2CN(C(=O)N3N=CC[C@H]3c3cc(F)cc(C#N)c3)C2)c(F)cn1 [Compound 22, (S)-3-(1-(3-((2-(1,4-dimethyl-1H-imidazol-5-yl)-5-fluoropyridin-4-yl)oxy)azetidine-1-carbonyl)-4,5-dihydro-1H-pyrazol-5-yl)-5-fluorobenzonitrile] | 0.1 to 100 nM |
| Cc1cn(C)c(-c2cc(OC3CN(C(=O)N4N=CC[C@H]4c4cc(F)cc(C#N)c4)C3)c(F)cn2)n1 [Compound 23, (S)-3-(1-(3-((2-(1,4-dimethyl-1H-imidazol-2-yl)-5-fluoropyridin-4-yl)oxy)azetidine-1-carbonyl)-4,5-dihydro-1H-pyrazol-5-yl)-5-fluorobenzonitrile] | 0.1 to 100 nM |
| Cc1cnn(C)c1-c1ncc(F)c(OC2CN(C(=O)N3N=CC[C@H]3c3cncc(F)c3)C2)n1 [Compound 24, (S)-(3-((2-(1,4-dimethyl-1H-pyrazol-5-yl)-5-fluoropyrimidin-4-yl)oxy)azetidin-1-yl)(5-(5-fluoropyridin-3-yl)-4,5-dihydro-1H-pyrazol-1-yl)methanone] | 0.1 to 100 nM |
| Cc1cnn(C)c1-c1ncc(F)c(OC2CN(C(=O)N3N=CC[C@H]3c3cc(F)cc(C#N)c3)C2)n1 [Compound 25, (S)-3-(1-(3-((2-(1,4-dimethyl-1H-pyrazol-5-yl)-5-fluoropyrimidin-4-yl)oxy)azetidine-1-carbonyl)-4,5-dihydro-1H-pyrazol-5-yl)-5-fluorobenzonitrile] | 0.1 to 100 nM |
| Cn1ncc(C#N)c1-c1cc(OC2CN(C(=O)N3N=CC[C@H]3c3cncc(F)c3)C2)c(F)cn1 [Compound 26, (S)-5-(5-fluoro-4-((1-(5-(5-fluoropyridin-3-yl)-4,5-dihydro-1H-pyrazole-1-carbonyl)azetidin-3-yl)oxy)pyridin-2-yl)-1-methyl-1H-pyrazole-4-carbonitrile] | 0.1 to 100 nM |
| Cn1nccc1-c1cc(OC2CN(C(=O)N3N=CC[C@H]3c3cncc(F)c3)C2)c(F)cn1 [Compound 27, (S)-(3-((5-fluoro-2-(1-methyl-1H-pyrazol-5-yl)pyridin-4-yl)oxy)azetidin-1-yl)(5-(5-fluoropyridin-3-yl)-4,5-dihydro-1H-pyrazol-1-yl)methanone] | 0.1 to 100 nM |
| CCn1nccc1-c1cc(OC2CN(C(=O)N3N=CC[C@H]3c3cncc(F)c3)C2)c(F)cn1 [Compound 28, (S)-(3-((2-(1-ethyl-1H-pyrazol-5-yl)-5-fluoropyridin-4-yl)oxy)azetidin-1-yl)(5-(5-fluoropyridin-3-yl)-4,5-dihydro-1H-pyrazol-1-yl)methanone] | 0.1 to 100 nM |
| Cc1cc(-c2cc(OC3CN(C(=O)N4N=CC[C@H]4c4cncc(F)c4)C3)c(F)cn2)n(C)n1 [Compound 29, (S)-(3-((2-(1,3-dimethyl-1H-pyrazol-5-yl)-5-fluoropyridin-4-yl)oxy)azetidin-1-yl)(5-(5-fluoropyridin-3-yl)-4,5-dihydro-1H-pyrazol-1-yl)methanone] | 0.1 to 100 nM |
| Cc1cnn(C)c1-c1cc(OC2CN(C(=O)N3N=CC[C@H]3c3cncc(F)c3)C2)c(F)cn1 [Compound 30, (S)-(3-((2-(1,4-dimethyl-1H-pyrazol-5-yl)-5-fluoropyridin-4-yl)oxy)azetidin-1-yl)(5-(5-fluoropyridin-3-yl)-4,5-dihydro-1H-pyrazol-1-yl)methanone] | 0.1 to 100 nM |
